In brackets after ≈: the same amount, converted by molar mass. Entries after “also recorded” stand apart in the source; their conditions may differ.
Tests used:
[1] = Solubility in sodium phosphate buffer; assay type: physicochemical; conditions: aqueous buffer, kinetic from dmso stock; sodium phosphate buffer (pH 7.4, 0.1 M) containing 1% DMSO
Method: To our knowledge, no systematic studies of selenoureas as sEH inhibitors have been performed previously. The potency of the compounds was determined against the human recombinant sEH and their solubility assessed in phosphate-buffered saline (Table 1).

[2] = Ferric-reducing antioxidant power (FRAP); conditions: Trolox equivalents (Trolox = 1)
Description: To confirm the SET mechanism, the reducing activity of the compounds was studied using tests CUPRAC (Cupric-Reducing Antioxidant Capacity) and FRAP (Ferric ion-Reducing Antioxidant Power). Unlike the DPPH and ABTS tests, these methods are based only on the ability of substances to act as electron donors. It should be noted that the CUPRAC test has several advantages: the manifestation of activity at a pH close to the physiological value and a favorable redox potential; the method is applicable to both lipophilic and hydrophilic antioxidants. The antioxidant potential of the studied derivatives 4a–g and 5a is estimated in equivalents of the water-soluble analog of vitamin E—Trolox (TEAC—Trolox Equivalent Antioxidant Capacity), the activity of which is taken as the unit ([…] = 1, […] = 1).
The sample solution (0.1 mL) was mixed with 0.1 mL phosphate buffer (0.2 M, pH 6.6) and 0.1 mL potassium ferricyanide (1%). For each test compound, different concentrations of EtOH were used (5, 10, 25, 50, 100, 200 and 250 μM). The resulting mixture was incubated at 50 °C for 20 min. After the incubation period, 0.1 mL trichloroacetic acid (10%), 0.5 mL deionized water and 0.1 mL ferric chloride (0.1%) were added to the mixture. The sample absorbance was read at 700 nm with a 96-cell microplate spectrophotometer. The reduction of Fe (III) to Fe (II) could be expressed as % inhibition or the equivalent of a standard compound (e.g., Trolox).

[3] = Superoxide radical anion formation by xanthine oxidase (NBT assay); assay type: biochemical; conditions: sample solution 5 mM in DMSO
Method: The superoxide anion radical scavenging activity of derivatives 4a–g and 5a was evaluated by the ability to inhibit the reduction of nitro blue tetrazolium (NBT) to blue formazan by trapping O2^•− generated by xanthine oxidase in the oxidation of hypoxanthine to uric acid.
EDTA, xanthine, bovine serum albumin, nitro blue tetrazolium and xanthine oxidase (25 MU) were purchased from Sigma Aldrich (Burlington, MA, USA). The superoxide anions were generated enzymatically by the xanthine oxidase system. The reaction mixture consisted of 2.70 mL of 40 mM sodium carbonate buffer containing 0.1 mM EDTA (pH 10.0), 0.06 mL of 10 mM xanthine, 0.03 mL of 0.5% bovine serum albumin, 0.03 mL of 2.5 mM nitro blue tetrazolium and 0.06 mL of the sample solution in DMSO at the concentration of 5 mM. An amount of 0.12 mL of xanthine oxidase (0.04 units) was added to the mixture at 25 °C, and the absorbance at 560 nm (by formation of blue formazan) was measured by a microplate spectrophotometer for 60 s. A control experiment was carried out by replacing the sample solution with the same amount of DMSO.
Inhibition I (%) = [(1 − Ai/A0) × 100%], where Ai is the absorbance in the presence of the testing compound, and A0 is the absorbance of the blank solution. All experiments were performed three times.

[4] = Nitric oxide radical scavenging assay (sodium nitroprusside, Griess); conditions: sample solution 0.5 mM, sodium nitroprusside 5 mM, 150 min
Method: The activity of compounds 4a–g and 5a with respect to NO^• generated from sodium nitroprusside, which further interacts with dissolved oxygen to form nitrite ions measured using the Griss reagent, was investigated.
Sodium nitroprusside (SNP) dissolved in aqueous solution at physiological pH 7.2 can generate nitric oxide whose level can be measured by the Griess reaction. Sample solution (50 µL, 0.5 mM) was mixed with SNP (50 µL, 5 mM) in phosphate buffer at pH 7.4 (0.2 M), followed by an incubation at room temperature for 150 min. Similarly, a blank was prepared by adding the sample solution in phosphate buffer without SNP. Griess reagent (solutions of 0.33% sulfanilic acid and 0.1% N-(1-naphthyl) ethylenediamine (NED) (C12H14N2) in 20% glacial acetic acid; 1:1) (100 µL) was added to the incubated sample and allowed to stand for 30 min. Absorbance values of the blank and samples were measured at 548 nm. The absorbance of the blank was then subtracted from that of the sample. Results were expressed as %inhibition. Inhibition I (%) = [(A0 − A1)/A0] × 100, where A1 is the absorbance in the presence of the testing compound, and A0 is the absorbance of the blank solution. All experiments were performed three times.

[5] = Ferrous ions (Fe2+) chelating activity (FIC); conditions: compound 5 mM; EDTA taken as 100%
Description: One of the most important antioxidant properties of compounds is the ability to chelate transition metal ions, including iron, which participate in the Fenton reaction, forming an active HO^• and H2O2 and contributing to the development of radical processes, respectively, leading to oxidative damage to cells. In this regard, potential antioxidants can act not only as scavengers of active radicals but also have chelating properties. Therefore, the Ferrous Ions Chelating Activity (FIC) of compounds 4a–g and 5a were evaluated in this work by their ability to bind iron(II), which is expressed in a decreased amount of the colored ferrozine complex.
The chelation of ferrous ions by compounds was estimated by the method of Dinis et al. Briefly, 10 μL of 2 mM FeCl2 was added to 20 μL of the investigated compound (5 mM) and 150 μL of EtOH. The reaction was initiated by the addition of 0.04 mL of 5 mM ferrozine solution. The mixture was left to stand at 35 °C for 10 min. The absorbance of the solution was thereafter measured at 562 nm. The percentage inhibition of ferrozine–Fe^2+ complex formation was calculated as […], where A0 is the absorbance of the control, and As is the absorbance of the compound/standard. Na2EDTA was used as the positive control.

Structure (SMILES) | solubility [1] | TEACFRAP [2] | % Inhibition NBT [3] | % Inhibition NO• [4] | % Inhibition FIC [5] | melting point
[Se]=C(NCc1ccccc1)NC12CC3CC(CC(C3)C1)C2 [5a, 1-(Adamantan-1-yl)-3-benzylselenourea] | 125 ± 20 µM (≈ 43.4 µg/mL) | 1.19 ± 0.04 | 56.52 ± 0.05% | non active | not established; also recorded: non active | 157 to 158 °C
[Se]=C(Nc1ccccc1)Nc1ccc(C23CC4CC(CC(C4)C2)C3)cc1 [4e, 1-[4-(Adamantan-1-yl)phenyl]-3-phenylselenourea] | 30 ± 10 µM (≈ 12.3 µg/mL) | 1.13 ± 0.14 | 4.75 ± 0.50% | 2.63 ± 0.99% | not established; also recorded: non active | 163 to 164 °C
[Se]=C(Nc1ccccc1)NC1C2CC3CC(C2)CC1C3 (centres unmarked) [4g, 1-(Adamantan-2-yl)-3-phenylselenourea] | 80 ± 20 µM (≈ 26.7 µg/mL) | 1.39 ± 0.03 | 14.26 ± 1.48% | 27.91 ± 1.50% | 19.74 ± 1.57% | 187 to 188 °C
CC12CC3CC(C)(C1)CC(NC(=[Se])Nc1ccccc1)(C3)C2 [4f, 1-(3,5-Dimethyladamantan-1-yl)-3-phenylselenourea] | 100 ± 10 µM (≈ 36.1 µg/mL) | 0.57 ± 0.04 | 10.93 ± 1.05% | 7.27 ± 0.72% | 26.20 ± 3.20% | 142 to 143 °C
[Se]=C(NCC12CC3CC(CC(C3)C1)C2)Nc1ccccc1 [4b, 1-[(Adamantan-1-yl)methyl]-3-phenylselenourea] | 110 ± 20 µM (≈ 38.2 µg/mL) | 1.14 ± 0.03 | 35.20 ± 1.46% | 20.57 ± 1.42% | 14.15 ± 2.27% | 197 to 198 °C
[Se]=C(NCCC12CC3CC(CC(C3)C1)C2)Nc1ccccc1 [4d, 1-[2-(Adamantan-1-yl)ethyl]-3-phenylselenourea] | 70 ± 10 µM (≈ 25.3 µg/mL) | 1.32 ± 0.01 | 6.85 ± 1.18% | 31.36 ± 2.48% | not established; also recorded: non active | 141 to 142 °C
CC(NC(=[Se])Nc1ccccc1)C12CC3CC(CC(C3)C1)C2 (centres unmarked) [4c, 1-[1-(Adamantan-1-yl)ethyl]-3-phenylselenourea] | 50 ± 5 µM (≈ 18.1 µg/mL) | 1.81 ± 0.08 | 6.52 ± 0.50% | 54.35 ± 2.38% | 21.90 ± 1.88% | 
[Se]=C(Nc1ccccc1)NC12CC3CC(CC(C3)C1)C2 [4a, 1-(Adamantan-1-yl)-3-phenylselenourea] | 55 ± 10 µM (≈ 18.3 µg/mL) | 0.93 ± 0.06 | 29.17 ± 0.01% | non active | 13.6 ± 0.04% | 202 to 203 °C

Source: publication PMC9501280, “Anti-Inflammatory Activity of Soluble Epoxide Hydrolase Inhibitors Based on Selenoureas Bearing an Adamantane Moiety” (International Journal of Molecular Sciences, 2022)
